Tests used:
[1] = tested on: Xylose isomerase RsXIC1-O (RsXI-C1, SEQ ID NO: 2; codon optimized gene RsXIC1-O, SEQ ID NO: 45), intestinal protist of Reticulitermes speratus, expressed in …; assay: Xylose isomerase kinetic analysis, crude yeast extract of W600W/pRS436GAP-RsXIC1-O (SDH-coupled NADH oxidation); format: biochemical
Description: (§1) The genes were synthesized by Genscript Corporation (www.Genscript.com) and Life Technologies Corporation (www.lifetechnologies.com), and the synthesized genes were named RsXIC1-O (SEQ ID NO: 45), PiXI-O (SEQ ID NO: 46) and CpXI-O (SEQ ID NO: 47), respectively.
(§2) The W600W/pRS436GAP-RsXIC1-O strain and W600W/pRS436GAP-PiXI-O strain were cultured for 24 hours in SD liquid medium, and the cells were collected and washed twice with sterile water, and then washed twice with 100 mM phosphate buffer (pH 7.0). After washing, glass beads (di 0.3 mm, Yasui Kikai) and 100 mM phosphate buffer (pH 7.0) were added to the yeast pellets, and a Multi-beads shocker (Yasui Kikai) was operated for 7 minutes at 4° C., 2500 rpm to disrupt the yeast cells. The resulting disrupted cell liquid was centrifuged for 5 minutes at 4° C., 12000 rpm, and the supernatant was collected as a crude yeast extract. The total protein concentration of the crude yeast extract was measured with a Quick Start protein assay kit (Bio-Rad).
(§3) The reaction was performed at 30° C., and NADH absorbancy changes were measured at a wavelength of 340 nm with a Ubest-55 spectrometer (Jasco).

[2] = target: Piromyces sp. E2 xylose isomerase PiXI-O (PiXI; codon optimized gene PiXI-O, SEQ ID NO: 46), expressed in yeast (Piromyces sp. E2, UniProt A0ACD6B9F5); assay: Xylose isomerase kinetic analysis, crude yeast extract of W600W/pRS436GAP-PiXI-O (SDH-coupled NADH oxidation); format: biochemical
Piromyces sp. E2 xylose isomerase PiXI-O (PiXI; codon optimized gene PiXI-O, SEQ ID NO: 46), expressed in yeast, sequence (A0ACD6B9F5 1-437): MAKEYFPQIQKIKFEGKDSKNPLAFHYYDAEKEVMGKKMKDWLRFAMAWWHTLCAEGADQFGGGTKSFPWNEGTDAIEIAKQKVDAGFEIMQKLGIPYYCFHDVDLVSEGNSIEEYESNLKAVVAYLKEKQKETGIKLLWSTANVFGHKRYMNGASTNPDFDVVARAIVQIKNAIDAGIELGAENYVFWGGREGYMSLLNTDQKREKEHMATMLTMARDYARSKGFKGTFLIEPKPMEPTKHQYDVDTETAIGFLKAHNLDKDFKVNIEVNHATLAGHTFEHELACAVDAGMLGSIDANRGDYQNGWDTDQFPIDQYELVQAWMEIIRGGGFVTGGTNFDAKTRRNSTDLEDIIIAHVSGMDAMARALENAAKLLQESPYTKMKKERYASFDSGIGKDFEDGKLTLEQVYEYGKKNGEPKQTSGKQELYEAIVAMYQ
Description: as §1, §2, §3

[3] = tested on: Piromyces sp. E2 xylose isomerase PiXI, expressed in yeast; settings: Non-patent Literature 1; cited from earlier work
[4] = tested on: Clostridium phytofermentans xylose isomerase CpXI (protein ID: YP_001558336), expressed in yeast; settings: Non-patent Literature 1; cited from earlier work
[5] = xylose 5 to 250 mM, pH 7.5, 30° C., 10 mM MgCl2, crude yeast extract, Hanes-Woolf plot

What does the source list for `OC1OC[C@@H](O)[C@H](O)[C@H]1O` (stereo partly shown) [xylose]?
Km value for RsXIC1-O relative to the value for PiXI-O ([1]; Km ratio RsXIC1-O vs PiXI-O): not more than ⅓; Km [1, 5]: 13.3 ± 2.02 mM; Vmax [1, 5]: 0.054 ± 0.007 μmol/mg-protein; maximum reaction velocity Vmax for PiXI-O relative to RsXIC1-O ([2]; Vmax ratio PiXI-O vs RsXIC1-O): about 1.5 times; Vmax [2, 5]: 0.078 ± 0.026 μmol/mg-protein; Km [3]: 49.8 ± 2.82 mM; Km [4]: 66 ± 1 mM

From patent US8772012B2 (Kabushiki Kaisha Toyota Chuo Kenkyusho, priority 2009, dated 2014)
